Reference: patent US11485742B2, “2-azaspiro[3.4]octane derivatives as M4 agonists” (NOVARTIS AG, priority 2019, dated 2022)

Key:
[1] = biological target: T1, human cloned CHRM2 receptor (Homo sapiens, UniProt P08172); assay: CHRM2 Ca++ Flux Assay (M2_CHO cells, agonist mode); type: cell-based; details: M2 CHO cells; for EC50: agonist mode, geometric mean if tested more than once, read-out: M2 FDSS EC50; for Emax: read-out: M2 FDSS PA %
T1 construct: expressed in transfected cells; host or cells: CHO-K1 (M2_CHO)
T1 sequence (P08172 1-466): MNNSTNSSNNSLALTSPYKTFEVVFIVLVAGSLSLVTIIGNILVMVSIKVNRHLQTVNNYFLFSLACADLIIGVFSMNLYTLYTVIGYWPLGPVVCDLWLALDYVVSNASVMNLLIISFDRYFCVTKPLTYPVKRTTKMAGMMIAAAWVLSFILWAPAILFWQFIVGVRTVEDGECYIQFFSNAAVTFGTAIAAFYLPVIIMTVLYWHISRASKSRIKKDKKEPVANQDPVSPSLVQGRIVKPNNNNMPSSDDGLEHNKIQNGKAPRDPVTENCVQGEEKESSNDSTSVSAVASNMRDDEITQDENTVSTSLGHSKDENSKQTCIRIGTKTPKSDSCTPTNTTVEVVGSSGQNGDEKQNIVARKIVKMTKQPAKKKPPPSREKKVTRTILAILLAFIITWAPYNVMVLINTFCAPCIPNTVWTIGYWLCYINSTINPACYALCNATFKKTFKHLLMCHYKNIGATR
Outline: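 CHO-K1 cells stably expressing human CHRM2 were plated overnight at 12K cells/well and loaded with Ca++ dye for 1–2 h. They were then held 60 minutes in HBSS −Ca/−Mg, 20 mM HEPES, 2.5 mM probenecid, 20 μM ATP. Agonist-mode Ca++ flux was read over 3 minutes. Four-parameter fits of triplicates gave percent activity relative to carbachol EC100.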

[2] = biological target: T2, human cloned CHRM4 receptor (Homo sapiens, UniProt P08173); assay: CHRM4 Ca++ Flux Assay (M4_CHO cells, agonist mode); type: cell-based; details: for Emax: read-out: M4 FDSS PA %; for EC50: geometric mean if tested more than once, read-out: M4 FDSS EC50
T2 construct: expressed in transfected cells; host or cells: CHO-K1 (M4_CHO)
T2 sequence (P08173 1-479): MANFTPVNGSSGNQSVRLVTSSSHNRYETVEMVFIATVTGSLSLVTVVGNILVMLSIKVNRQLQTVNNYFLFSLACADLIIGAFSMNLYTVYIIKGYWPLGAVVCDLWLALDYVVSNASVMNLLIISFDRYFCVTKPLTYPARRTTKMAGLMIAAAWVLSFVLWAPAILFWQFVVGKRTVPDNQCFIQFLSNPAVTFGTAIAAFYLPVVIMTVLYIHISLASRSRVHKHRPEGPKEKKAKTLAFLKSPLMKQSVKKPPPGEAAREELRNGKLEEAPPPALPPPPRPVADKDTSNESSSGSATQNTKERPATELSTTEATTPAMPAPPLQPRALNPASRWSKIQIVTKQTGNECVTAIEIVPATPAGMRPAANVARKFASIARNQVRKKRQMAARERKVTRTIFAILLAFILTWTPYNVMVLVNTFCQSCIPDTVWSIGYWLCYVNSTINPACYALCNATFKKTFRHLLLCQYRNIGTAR
Outline: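 CHO-K1 cells stably expressing human M4 were dye-loaded, then held 60 min at RT in Ca/Mg-free HBSS buffer with 20 μM ATP. Ca++ traces were recorded over 3 min after an 11-point compound series in triplicate, agonist mode, with a four-parameter fit. Percent activity is relative to the carbachol EC100; repeat tests are geometric means.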

[3] = Percent Activity (PA) measured to EC100 of Carbachol

`Fc1cc(F)c(OC2CCOCC2)c(C2CCN([C@@H]3COC4(C3)CN(c3nnco3)C4)CC2)c1` [Example 2BB, (S)-7-(4-(3,5-difluoro-2-((tetrahydro-2H-pyran-4-yl)oxy)phenyl)piperidin-1-yl)-2-(1,3,4-oxadiazol-2-yl)-5-oxa-2-azaspiro[3.4]octane] showed an EC50 [1] of 4850 nM, an Emax [1, 3] of 27% and an Emax ([2]; Percent Activity (PA)) of 91%. The EC50 [2] was 946 nM.
Compound `Fc1cc(F)c(O[C@@H]2CCOC2)c(C2CCN([C@@H]3COC4(C3)CN(c3nnco3)C4)CC2)c1` [Example 2CC, (S)-7-(4-(3,5-difluoro-2-(((R)-tetrahydrofuran-3-yl)oxy)phenyl)piperidin-1-yl)-2-(1,3,4-oxadiazol-2-yl)-5-oxa-2-azaspiro[3.4]octane] has an EC50 [1] of 2070 nM, an Emax [1, 3] of 37% and an Emax ([2]; Percent Activity (PA)) of 79%. For the same compound, the EC50 [2] was 168 nM.
`Fc1cc(F)c(OCC2COC2)c(C2CCN([C@@H]3COC4(C3)CN(c3nnco3)C4)CC2)c1` [Example 2DD, (S)-7-(4-(3,5-difluoro-2-(oxetan-3-ylmethoxy)phenyl)piperidin-1-yl)-2-(1,3,4-oxadiazol-2-yl)-5-oxa-2-azaspiro[3.4]octane] gave an EC50 [1] of 6760 nM, an Emax [1, 3] of 23% and an Emax ([2]; Percent Activity (PA)) of 64%. It also gave an EC50 [2] of 155 nM.
With `Fc1cc(F)c(OC2COC2)c(C2CCN([C@@H]3COC4(C3)CN(c3nnco3)C4)CC2)c1` [Example 2EE, (S)-7-(4-(3,5-difluoro-2-(oxetan-3-yloxy)phenyl)piperidin-1-yl)-2-(1,3,4-oxadiazol-2-yl)-5-oxa-2-azaspiro[3.4]octane] the EC50 [1] was 2940 nM, the Emax [1, 3] was 50% and the Emax ([2]; Percent Activity (PA)) was 74%. For the same compound, the EC50 [2] was 86 nM.
In the case of `Fc1cc(OC2COC2)c(C2CCN([C@@H]3COC4(C3)CN(c3nnco3)C4)CC2)cc1F` [Example 2FF, (S)-7-(4-(4,5-difluoro-2-(oxetan-3-yloxy)phenyl)piperidin-1-yl)-2-(1,3,4-oxadiazol-2-yl)-5-oxa-2-azaspiro[3.4]octane], the EC50 [1] is reported as 312 nM, the Emax [1, 3] is reported as 28% and the Emax ([2]; Percent Activity (PA)) is reported as 66%. For the same compound, the EC50 [2] was 26 nM.
`Fc1cc(OC2CCOCC2)c(C2CCN([C@@H]3COC4(C3)CN(c3nnco3)C4)CC2)cc1F` [Example 2GG, (S)-7-(4-(4,5-difluoro-2-((tetrahydro-2H-pyran-4-yl)oxy)phenyl)piperidin-1-yl)-2-(1,3,4-oxadiazol-2-yl)-5-oxa-2-azaspiro[3.4]octane] was tested, and the EC50 [1] was over 25000 nM, the Emax [1, 3] was 0% and the Emax ([2]; Percent Activity (PA)) was 58%. The EC50 [2] was 87 nM.
With `C[C@H](Oc1ccc(F)cc1C1CCN([C@@H]2COC3(C2)CN(c2nnco2)C3)CC1)C1CCOCC1` [Example 2X, (S)-7-(4-(5-fluoro-2-((S)-1-(tetrahydro-2H-pyran-4-yl)ethoxy)phenyl)piperidin-1-yl)-2-(1,3,4-oxadiazol-2-yl)-5-oxa-2-azaspiro[3.4]octane or(S)-7-(4-(5-fluoro-2-((R)-1-(tetrahydro-2H-pyran-4-yl)ethoxy)phenyl)piperidin-1-yl)-2-(1,3,4-oxadiazol-2-yl)-5-oxa-2-azaspiro[3.4]octane] the EC50 [1] was 11200 nM, the “M2 FDSS PA %” value [1, 3] was 23% and the “M4 FDSS PA %” value ([2]; Percent Activity (PA)) was 40%. For the same compound, the EC50 [2] was 1780 nM.
`Fc1ccc(OCC2C3COCC32)c(C2CCN([C@@H]3COC4(C3)CN(c3nnco3)C4)CC2)c1` (stereo partly drawn) [Example 2Z, (7S)-7-(4-(2-((3-oxabicyclo[3.1.0]hexan-6-yl)methoxy)-5-fluorophenyl)piperidin-1-yl)-2-(1,3,4-oxadiazol-2-yl)-5-oxa-2-azaspiro[3.4]octane] showed an EC50 [1] of 760 nM, an Emax [1, 3] of 24% and an Emax ([2]; Percent Activity (PA)) of 51%. For the same compound, the EC50 [2] was 108 nM.
With `c1ccc(C2CCN([C@@H]3COC4(C3)CN(c3nnco3)C4)CC2)c(C2CCOCC2)c1` [Example 3C, (S)-2-(1,3,4-oxadiazol-2-yl)-7-(4-(2-(tetrahydro-2H-pyran-4-yl)phenyl)piperidin-1-yl)-5-oxa-2-azaspiro[3.4]octane] the EC50 [1] was 4820 nM, the Emax [1, 3] was 34% and the Emax ([2]; Percent Activity (PA)) was 85%. For the same compound, the EC50 [2] was 184 nM.
Compound `Fc1ccc(C2CCOCC2)c(C2CCN([C@@H]3COC4(C3)CN(c3nnco3)C4)CC2)c1` [Example 3D, (S)-7-(4-(5-fluoro-2-(tetrahydro-2H-pyran-4-yl)phenyl)piperidin-1-yl)-2-(1,3,4-oxadiazol-2-yl)-5-oxa-2-azaspiro[3.4]octane] has an EC50 [1] of 1920 nM, an Emax [1, 3] of 48% and an Emax ([2]; Percent Activity (PA)) of 84%. It also gave an EC50 [2] of 63 nM.
`c1ccc(C2CCN([C@@H]3COC4(C3)CN(c3nnco3)C4)CC2)c(CC2CCOCC2)c1` [Example 3G, (S)-2-(1,3,4-oxadiazol-2-yl)-7-(4-(2-((tetrahydro-2H-pyran-4-yl)methyl)phenyl)piperidin-1-yl)-5-oxa-2-azaspiro[3.4]octane] showed an EC50 [1] of 3660 nM, an Emax [1, 3] of 16% and an Emax ([2]; Percent Activity (PA)) of 82%. It also gave an EC50 [2] of 185 nM.
In the case of `Fc1ccc(OC2COC2)c(C2CCN([C@@H]3COC4(C3)CN(c3ncco3)C4)CC2)c1` [Example 4A, (S)-7-(4-(5-fluoro-2-(oxetan-3-yloxy)phenyl)piperidin-1-yl)-2-(oxazol-2-yl)-5-oxa-2-azaspiro[3.4]octane], the EC50 [1] is reported as 432 nM, the Emax [1, 3] is reported as 21% and the Emax ([2]; Percent Activity (PA)) is reported as 80%. The EC50 [2] was 4 nM.
`Fc1ccc(OC[C@H]2COCCO2)c(C2CCN([C@@H]3COC4(C3)CN(c3ncco3)C4)CC2)c1` [Example 4B, (S)-7-(4-(2-(((R)-1,4-dioxan-2-yl)methoxy)-5-fluorophenyl)piperidin-1-yl)-2-(oxazol-2-yl)-5-oxa-2-azaspiro[3.4]octane] gave an EC50 [1] of over 25000 nM, an Emax [1, 3] of 32% and an Emax ([2]; Percent Activity (PA)) of 77%. The EC50 [2] was 4 nM.
`c1ccc(C2CCN([C@@H]3COC4(C3)CN(c3ncco3)C4)CC2)c(OC2COC2)c1` [Example 4C, (S)-2-(oxazol-2-yl)-7-(4-(2-(oxetan-3-yloxy)phenyl)piperidin-1-yl)-5-oxa-2-azaspiro[3.4]octane] was tested, and the EC50 [1] was 433 nM, the Emax [1, 3] was 38% and the Emax ([2]; Percent Activity (PA)) was 80%. It also gave an EC50 [2] of 7 nM.
`Fc1ccc(O[C@@H]2CCOC2)c(C2CCN([C@@H]3COC4(C3)CN(c3ncco3)C4)CC2)c1` [Example 4D, (S)-7-(4-(5-fluoro-2-(((R)-tetrahydrofuran-3-yl)oxy)phenyl)piperidin-1-yl)-2-(oxazol-2-yl)-5-oxa-2-azaspiro[3.4]octane] gave an EC50 [1] of over 25000 nM, an Emax [1, 3] of 17% and an Emax ([2]; Percent Activity (PA)) of 77%. For the same compound, the EC50 [2] was 7 nM.
For `Fc1ccc(OC2CCOCC2)c(C2CCN([C@@H]3COC4(C3)CN(c3ncco3)C4)CC2)c1` [Example 4E, (S)-7-(4-(5-fluoro-2-((tetrahydro-2H-pyran-4-yl)oxy)phenyl)piperidin-1-yl)-2-(oxazol-2-yl)-5-oxa-2-azaspiro[3.4]octane], the EC50 [1] was over 25000 nM, the Emax [1, 3] was 0% and the Emax ([2]; Percent Activity (PA)) was 81%. For the same compound, the EC50 [2] was 12 nM.
In the case of `c1ccc(C2CCN([C@@H]3COC4(C3)CN(c3ncco3)C4)CC2)c(O[C@@H]2CCOC2)c1` [Example 4F, (S)-2-(oxazol-2-yl)-7-(4-(2-(((R)-tetrahydrofuran-3-yl)oxy)phenyl)piperidin-1-yl)-5-oxa-2-azaspiro[3.4]octane], the EC50 [1] is reported as 3260 nM, the Emax [1, 3] is reported as 17% and the Emax ([2]; Percent Activity (PA)) is reported as 80%. For the same compound, the EC50 [2] was 15 nM.
`Fc1ccc(OC2CC3(COC3)C2)c(C2CCN([C@@H]3COC4(C3)CN(c3ncco3)C4)CC2)c1` [Example 4G, (S)-7-(4-(2-((2-oxaspiro[3.3]heptan-6-yl)oxy)-5-fluorophenyl)piperidin-1-yl)-2-(oxazol-2-yl)-5-oxa-2-azaspiro[3.4]octane] was tested, and the EC50 [1] was 13100 nM, the Emax [1, 3] was 58% and the Emax ([2]; Percent Activity (PA)) was 68%. It also gave an EC50 [2] of 17 nM.
With `c1ccc(C2CCN([C@@H]3COC4(C3)CN(c3ncco3)C4)CC2)c(O[C@H]2CCOC2)c1` [Example 4H, (S)-2-(oxazol-2-yl)-7-(4-(2-(((S)-tetrahydrofuran-3-yl)oxy)phenyl)piperidin-1-yl)-5-oxa-2-azaspiro[3.4]octane] the EC50 [1] was over 25000 nM, the Emax [1, 3] was 20% and the Emax ([2]; Percent Activity (PA)) was 69%. The EC50 [2] was 17 nM.
